Measurements: patent US5547870A, “Oxalate decarboxylate” (Zeneca Limited, priority 1994, dated 1996)
Counter-ions that a name gives are not always drawn.

What was measured:
[1] = biological target: T1, Collybia velutipes oxalate decarboxylase, purified native enzyme, peak A (eluting at pH 3.3 on chromatofocusing) (Flammulina velutipes, UniProt Q9UVK4); assay: Oxalate decarboxylase assay: liberation of 14CO2 from [14C]-oxalic acid; Lineweaver-Burk plots; format: biochemical, Collybia velutipes (strain S. A.T.C.C 13547)
T1 construct: chromatofocusing peak A (pH 3.3); about 55 kDa when deglycosylated
T1 sequence (Q9UVK4 21-447): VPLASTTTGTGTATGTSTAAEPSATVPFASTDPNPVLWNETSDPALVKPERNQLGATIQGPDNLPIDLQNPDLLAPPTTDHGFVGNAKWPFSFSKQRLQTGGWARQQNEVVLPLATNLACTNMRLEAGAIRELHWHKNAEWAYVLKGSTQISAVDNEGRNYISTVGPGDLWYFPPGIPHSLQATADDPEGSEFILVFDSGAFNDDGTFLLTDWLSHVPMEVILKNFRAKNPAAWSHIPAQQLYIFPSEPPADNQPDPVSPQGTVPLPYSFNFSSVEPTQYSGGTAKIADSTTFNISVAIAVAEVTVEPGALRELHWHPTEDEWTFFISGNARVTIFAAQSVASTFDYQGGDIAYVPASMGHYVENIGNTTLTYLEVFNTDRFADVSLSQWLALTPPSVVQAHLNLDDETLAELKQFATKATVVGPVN
Protocol: (§1) The oxalate decarboxylase activity was also determined by measuring the liberation of ^14 CO2 from [^14 C]-oxalic acid (Amersham, 4.1 mCi/mmol). The enzyme assay was carried out in small glass vails which contained 1 ml of the following reaction mixture: 0.2M potassium citrate, pH 3.0, 0.005M potassium oxalate, pH 3.0, 5.6 nmoles (0.0227 μCi) of (^14 C)-oxalic acid and 0.2 ml of enzyme solution. The tubes were preincubated for 5 min before the addition of enzyme. The tubes were sealed with rubber-stoppers and incubated at 37° C. for 30 min in a shaking water bath. The reaction was terminated by injection of 0.2 ml of 50% v/v trichloroacetic acid through the rubber caps and the tubes were shaken for additional 60 min to trap all the ^14 CO2 evolved in the 0.2 ml methylbenzethonium hydroxide(Sigma) placed in a plastic vial inside the glass tube. The plastic wells were withdrawn and the contents transferred to 5 ml of toluene based scintillation fluid and radioactivity determined in a liquid scintillation counter. Blanks tubes were set up in which the 0.2 ml of 50% TCA was added before the enzyme or the enzyme was omitted. In kinetic experiments, the values were corrected for the radioactivity obtained from the boiled denatured enzyme.
(§2) One unit was defined as the amount of enzyme releasing 1 μmole of ^14 CO2 per min at 37° C. under standard assay conditions. The overall assay efficiency was usually between 60-70%. Protein was determined by Lowry microassay method (Peterson, Anal. Biochem. 83:346 (1977)). Vmax and Km were determined by Lineweaver-Burk plot (Lineweaver and Burk, J. Am. Chem. Soc. 56:658-666 (1934)).

[2] = substrate: O=C(O)C(=O)O; assay: as above; format: biochemical, Collybia velutipes (strain S. A.T.C.C 13547); conditions: other: peak A enzyme, Lineweaver-Burk plot, 0.2M potassium citrate pH 3.0, 37° C.
Protocol: as §1, with “The reaction was terminated by injection of 0.2 ml of 50% v/v trichloroacetic acid through the rubber caps and the tubes were shaken for additional 60 min to trap all the ^14 CO2 evolved in the 0.2 ml methylbenzethonium hydroxide(Sigma) placed in a plastic vial inside the glass tube.” left out, “Blanks tubes were set up in which the 0.2 ml of 50% TCA was added before the enzyme or the enzyme was omitted.” left out
as §2, with “The overall assay efficiency was usually between 60-70%.” left out

O=C(O)CI [iodoacetate]
activity at 50000 µM ([1]; read-out: activity retained in the presence of sulfhydryl group reagent): 95%

O=S(=O)(O)c1cc[c]([Hg][Cl])cc1 [p-chloromercuribenzenesulfonic acid]
activity retained in the presence of sulfhydryl group reagent ([1]; 50 mM reagent): 95%

O=P(O)(O)O [phosphate ions, phosphate]
Ki ([1]; competitive inhibition, 90 mM PO4^2- added to the reaction, read-out: Ki (phosphate ions)): 9 mM

O=C(O)C(=O)O [potassium oxalate]
Vmax ([1]; peak A enzyme, potassium oxalate as substrate, Lineweaver-Burk plot, pH 3.0, 37° C.): 166 µmol/min/mg

B1: Collybia velutipes oxalate decarboxylase, purified native enzyme, peak A (eluting at pH 3.3 on chromatofocusing) (Flammulina velutipes) (protein)
chain: T1 sequence (Q9UVK4 21-447)
notes: chromatofocusing peak A (pH 3.3); about 55 kDa when deglycosylated
Km [2]: 4.5 mM
Vmax [2]: 166 µmol/min/mg
